What all share (experiment): ≥ marks a high value that may be exact or a test limit, other limits are often not marked, values filed in µg/mL are converted to µM
In experiment [1] the test system is Candida albicans ATCC 10231.
Experiment [2] has as its system Shigella dysenteriae CMCC 51302.
The test system of experiment [3] is Cryptococcus neoformans ATCC 32045.
Experiment [4] concerns Aspergillus flavus ATCC 9643.
The subject of experiment [5] is Trichophyton rubrum ATCC 28188.
Experiment [6] has as its system Aspergillus niger ATCC 6275.
Experiment [7] relates to Saccharomyces cerevisiae ATCC 9763.
Experiment [8] deals with Listeria monocytogenes CMCC 54002.
In experiment [9] the test system is Streptococcus pyogenes ATCC 12344.
For experiment [10], the system named is Salmonella typhimurium CMCC 50013.
Experiment [11] relates to Escherichia coli ATCC 43827.
Experiment [12] deals with Acinetobacter baumannii ATCC BAA-1605.
In experiment [13] the test system is Xanthomonas axonopodis pv. glycines ISBF 327.
Experiment [14] has as its system Pseudomonas aeruginosa ATCC 9027.
For experiment [15], the system named is Staphylococcus aureus ATCC 33591.
For experiment [16], the system named is Staphylococcus aureus ATCC 29313.
The subject of experiment [17] is Pseudomonas aeruginosa ATCC 27853.
Experiment [18] has as its system Klebsiella aerogenes ATCC 13048.
Experiment [19] concerns Bibersteinia trehalosi.
Experiment [20] relates to Enterococcus faecalis ATCC 29212.
Experiment [21] deals with Fusobacterium nucleatum ATCC 25586.
In experiment [22] the test system is Pseudomonas aeruginosa.
For experiment [23], the system named is Staphylococcus aureus ATCC 29213.
Experiment [24] concerns Klebsiella pneumoniae ATCC 13883.
For experiment [25], the system named is Mannheimia haemolytica Serovar 2.
The subject of experiment [26] is Mannheimia haemolytica Serovar 6.
Experiment [27] has as its system Staphylococcus aureus ATCC 43300.
Experiment [28] relates to Corynebacterium pseudotuberculosis ATCC 19410.
Experiment [29] has as its system Mannheimia haemolytica Serovar 1.
Experiment [30] concerns Salmonella enterica subsp. arizonae.
In experiment [31] the test system is Streptococcus mutans Ingbritt.
In experiment [32] the test system is Pasteurella multocida.
The test system of experiment [33] is Staphylococcus aureus.
Experiment [34] has as its system Klebsiella pneumoniae.
The subject of experiment [35] is Escherichia coli ATCC 25922.
Experiment [36] concerns Aspergillus fumigatus.
In experiment [37] the test system is Acinetobacter baumannii ATCC 19606.
Experiment [38] deals with Pseudomonas aeruginosa ATCC 21625.
In experiment [39] the test system is Pseudomonas aeruginosa LC.
Experiment [40] concerns Staphylococcus epidermidis ATCC 12228.
The subject of experiment [41] is Pseudomonas aeruginosa ATCC 10419.
For experiment [42], the system named is Pseudomonas aeruginosa LCCI.
Experiment [43] deals with Pseudomonas aeruginosa LCCE.
The test system of experiment [44] is Salmonella enterica subsp. enterica serovar Typhimurium C77-31.
The test system of experiment [45] is Pseudomonas aeruginosa LCGE.
Experiment [46] has as its system Pseudomonas aeruginosa ATCC 21630.

SMILES strings stand for the structures. Values after ≈ are worked out from the molar mass of the structure shown.

`CC(C)C[C@H](NC(=O)CN)C(=O)N[C@@H](C)C(=O)N[C@@H](CCCN=C(N)N)C(=O)N[C@@H](C)C(=O)N[C@@H](CC(C)C)C(=O)N[C@H](C(=O)N[C@@H](CCCN=C(N)N)C(=O)N[C@@H](CC(C)C)C(=O)N[C@@H](CC(C)C)C(=O)N[C@@H](CCCN=C(N)N)C(=O)N[C@@H](CCC(N)=O)C(=O)N[C@@H](CC(C)C)C(=O)N[C@H](C(=O)N[C@@H](CCCN=C(N)N)C(=O)N[C@@H](CCC(N)=O)C(=O)N[C@@H](CC(C)C)C(=O)N[C@H](C(=O)N[C@@H](CCCN=C(N)N)C(=O)N[C@@H](C)C(=O)O)[C@@H](C)O)[C@@H](C)O)[C@@H](C)O` [GLARALTRLLRQLTRQLTRA]: the minimum inhibitory concentration (MIC) in experiment [1] is 8 µM (≈ 18.5 µg/mL); in [2] it was 4 µM (≈ 9.23 µg/mL); in experiment [3] it was 16 µM (≈ 36.9 µg/mL); in [4], 8 µM (≈ 18.5 µg/mL); in experiment [5], no less than 32 µM; in [6], no less than 32 µM. The MIC in experiment [7] was 16 µM (≈ 36.9 µg/mL); in experiment [8], 4 µM (≈ 9.23 µg/mL); in [9], 4 µM (≈ 9.23 µg/mL); in experiment [10] it was 2 µM (≈ 4.62 µg/mL).

As for `CC[C@H](C)[C@H](NC(=O)[C@H](CCCCN)NC(=O)[C@H](CC(N)=O)NC(=O)[C@@H](NC(=O)[C@@H](NC(=O)[C@H](CCCCN)NC(=O)[C@@H](NC(=O)[C@H](C)NC(=O)[C@@H](NC(=O)[C@H](Cc1cnc[nH]1)NC(=O)CNC(=O)[C@H](C)NC(=O)[C@H](CC(C)C)NC(=O)[C@H](CC(=O)O)NC(=O)[C@H](CCCCN)NC(=O)[C@H](C)NC(=O)[C@H](C)NC(=O)CNC(=O)[C@H](CCCCN)NC(=O)[C@H](CC(C)C)NC(=O)[C@@H](NC(=O)[C@H](CC(=O)O)NC(=O)[C@H](CC(C)C)NC(=O)[C@@H](NC(=O)CN)C(C)C)[C@@H](C)CC)C(C)C)[C@@H](C)O)C(C)C)[C@@H](C)CC)C(N)=O` [GVLDILKGAAKDLAGHVATKVINKI], the MIC was no less than 201 µM in [11]; no less than 50.3 µM in experiment [12]; 25 µM (≈ 63.6 µg/mL) in experiment [13]; greater than 201 µM in experiment [14]; no less than 201 µM in experiment [15]; no less than 50 µM in experiment [16]. For the same compound, the minimal inhibitory concentration (MIC) in experiment [17] was determined as 100 µM (≈ 254 µg/mL).

For the compound `CC[C@H](C)[C@H](NC(=O)[C@H](CCCN=C(N)N)NC(=O)[C@H](CCCN=C(N)N)NC(=O)[C@H](CC(C)C)NC(=O)[C@H](CC(N)=O)NC(=O)[C@@H](N)CCCCN)C(=O)N[C@H](C(=O)N[C@@H](CCCN=C(N)N)C(=O)N[C@@H](CCCCN)C(=O)N[C@H](C(=O)N[C@H](C(=O)N[C@@H](Cc1cnc[nH]1)C(=O)N[C@H](C(=O)N[C@H](C(=O)N[C@@H](CCCCN)C(=O)N[C@@H](CCCCN)C(=O)N[C@@H](Cc1ccc(O)cc1)C(=O)NCC(=O)O)[C@@H](C)CC)[C@@H](C)CC)[C@@H](C)CC)[C@@H](C)CC)[C@@H](C)CC` [KNLRRIIRKIIHIIKKYG], the MIC in [18] was no less than 45.9 µM; in experiment [19], 1.02 µM (≈ 2.3 µg/mL); in [20] it was 78.8 µM (≈ 178 µg/mL); in experiment [21], 4.2 µM (≈ 9.5 µg/mL); in experiment [22], 0.625 µM (≈ 1.41 µg/mL); in [23] it was 138 µM (≈ 313 µg/mL). Further, the MIC in experiment [24] is 7.7 µM (≈ 17.4 µg/mL); in experiment [25], 0.265 µM (≈ 0.6 µg/mL); in experiment [26] it was 0.0884 µM (≈ 0.2 µg/mL); in experiment [27], greater than 250 µM; in experiment [28] it was 8.84 µM (≈ 20 µg/mL); in experiment [29], 0.663 µM (≈ 1.5 µg/mL). The MIC in experiment [30] came to 2.96 µM (≈ 6.7 µg/mL); in experiment [31], 16.5 µM (≈ 37.3 µg/mL); in experiment [32], 0.265 µM (≈ 0.6 µg/mL); in experiment [33], 6.63 µM (≈ 15 µg/mL); in experiment [34], 0.353 µM (≈ 0.8 µg/mL); in experiment [35] it was 9.6 µM (≈ 21.7 µg/mL). The MIC was found to be 4.42 µM (≈ 10 µg/mL) in experiment [36] and 2.6 µM (≈ 5.88 µg/mL) in [37].

For the compound `CC[C@H](C)[C@H](NC(=O)[C@H](CCCCN)NC(=O)[C@H](CCCCN)NC(=O)[C@H](CC(C)C)NC(=O)[C@H](CCCN=C(N)N)NC(=O)[C@H](CCCCN)NC(=O)[C@H](CCCN=C(N)N)NC(=O)[C@H](Cc1c[nH]c2ccccc12)NC(=O)[C@H](CCCCN)NC(=O)[C@H](CCCCN)NC(=O)[C@H](CCCN=C(N)N)NC(=O)[C@H](CC(C)C)NC(=O)[C@H](CCCN=C(N)N)NC(=O)[C@H](CCCN=C(N)N)NC(=O)[C@H](Cc1ccccc1)NC(=O)[C@@H](N)CCCN=C(N)N)C(N)=O` [RFRRLRKKWRKRLKKI], the minimal inhibitory concentration (MIC) worked out at 4 µM (≈ 9.07 µg/mL) in experiment [38]; 128 µM (≈ 290 µg/mL) in [23]; 1 µM (≈ 2.27 µg/mL) in [39]; 64 µM (≈ 145 µg/mL) in experiment [40]; 4 µM (≈ 9.07 µg/mL) in experiment [41]; 2 µM (≈ 4.54 µg/mL) in experiment [42]. Further, the minimal inhibitory concentration (MIC) is 4 µM (≈ 9.07 µg/mL) in experiment [43]; no less than 128 µM in experiment [44]; 4 µM (≈ 9.07 µg/mL) in experiment [45]; 64 µM (≈ 145 µg/mL) in experiment [35]; 4 µM (≈ 9.07 µg/mL) in experiment [46].
